The results in this text go back to patent US6423689B1, “Peptidyl calcium channel blockers” (Warner-Lambert Company, priority 1997, dated 2002).

Structures are written as SMILES.

The experiment addresses T1, N-type Ca2+ channels in IMR-32 cells (Homo sapiens, UniProt Q00975).
T1 construct: host or cells: IMR-32 cells, differentiated with dibutyryl cAMP and bromodeoxyuridine
Kind of experiment: Inhibition of N-type calcium flux in IMR-32 cells (Indo-1 fluorescence, nitrendipine present). Type of experiment: cell-based. As for the experimental part: Measurement of N-type Ca^2+ Channel Blocking Potencies of Compounds in IMR-32 Cells Using the Fluorescent Ca^2+ Indicator Indo-1
IMR-32 cells are a human tumoral cell line of neural origin. […] Calcium flux into these cells may be induced by stimulation with elevated potassium concentrations. The L-channel component of calcium flux may be blocked by adding 5 μM nitrendipine. The remaining component of calcium entry into the IMR-32 cells is due to calcium flux through N-type calcium channels. Intracellular calcium concentrations are measured using the fluorescent calcium indicator Indo 1. The effect of drug concentration on calcium uptake is studied.
The IMR-32 cell line was obtained from the American Type Culture Collection (Rockville, Md.). Cells were grown in Eagle's Minimum Essential Medium with Eagle's salts supplemented with 10% fetal bovine serum, 2 mM L-Gln and antibiotic/antimycotic mixture (Gibco). […] After 7 to 13 days of differentiation, cells were detached using 0.5 mM EDTA and loaded with 5 μM Indo-1 acetoxymethyl ester (Molecular Probes, Eugene, OR) at […] for 45 minutes. Loaded cells were washed twice, resuspended (˜10^7 cells/mL) in assay buffer (10 mM HEPES/Tris pH 7.4 in Hank's Balanced Salt Solution without bicarbonate or phenol red containing 0.5% bovine serum albumin) and kept on ice until use. Fluorescence measurements were carried out in a Photon Technology International (PTI, South Brunswick, N.J.) Model RF-F3004 spectrofluorometer with dual emission monochromators using excitation at 350 nm and emission at 400 and 490 nm. The instrument was equipped with a thermostated cuvette holder with stirring capabilities as well as with a computer-controlled pump which allowed for reagent addition during measurement. Instrument control and data collection was done by PTI's OSCAR software running on an IBM compatible computer. […] Samples were incubated for 10 minutes at 30° C. and then aliquoted into three 10×10 mm disposable acrylic cuvettes. Emission signals at 400 and 490 nm were acquired from each cuvette at 30° C. for 50 seconds. At 20 seconds after the start of reading, cells were depolarized by the addition of 160 μL of stimulation solution (1M KCl, 68 mM CaCl2) to the cuvette via the computer-controlled pump. Ratio of dual emission signals (400 nm/490 nm), which is proportional to intracellular Ca^2+ concentration, was plotted against time, and the difference between maximal response after stimulation and basal value (before stimulation) was determined. Values obtained in this way were plotted as a function of drug concentration. IC50 values of test compounds were calculated by fitting a four-parameter logistic function to the data using the least squares method.

T1 sequence (Q00975 whole entry): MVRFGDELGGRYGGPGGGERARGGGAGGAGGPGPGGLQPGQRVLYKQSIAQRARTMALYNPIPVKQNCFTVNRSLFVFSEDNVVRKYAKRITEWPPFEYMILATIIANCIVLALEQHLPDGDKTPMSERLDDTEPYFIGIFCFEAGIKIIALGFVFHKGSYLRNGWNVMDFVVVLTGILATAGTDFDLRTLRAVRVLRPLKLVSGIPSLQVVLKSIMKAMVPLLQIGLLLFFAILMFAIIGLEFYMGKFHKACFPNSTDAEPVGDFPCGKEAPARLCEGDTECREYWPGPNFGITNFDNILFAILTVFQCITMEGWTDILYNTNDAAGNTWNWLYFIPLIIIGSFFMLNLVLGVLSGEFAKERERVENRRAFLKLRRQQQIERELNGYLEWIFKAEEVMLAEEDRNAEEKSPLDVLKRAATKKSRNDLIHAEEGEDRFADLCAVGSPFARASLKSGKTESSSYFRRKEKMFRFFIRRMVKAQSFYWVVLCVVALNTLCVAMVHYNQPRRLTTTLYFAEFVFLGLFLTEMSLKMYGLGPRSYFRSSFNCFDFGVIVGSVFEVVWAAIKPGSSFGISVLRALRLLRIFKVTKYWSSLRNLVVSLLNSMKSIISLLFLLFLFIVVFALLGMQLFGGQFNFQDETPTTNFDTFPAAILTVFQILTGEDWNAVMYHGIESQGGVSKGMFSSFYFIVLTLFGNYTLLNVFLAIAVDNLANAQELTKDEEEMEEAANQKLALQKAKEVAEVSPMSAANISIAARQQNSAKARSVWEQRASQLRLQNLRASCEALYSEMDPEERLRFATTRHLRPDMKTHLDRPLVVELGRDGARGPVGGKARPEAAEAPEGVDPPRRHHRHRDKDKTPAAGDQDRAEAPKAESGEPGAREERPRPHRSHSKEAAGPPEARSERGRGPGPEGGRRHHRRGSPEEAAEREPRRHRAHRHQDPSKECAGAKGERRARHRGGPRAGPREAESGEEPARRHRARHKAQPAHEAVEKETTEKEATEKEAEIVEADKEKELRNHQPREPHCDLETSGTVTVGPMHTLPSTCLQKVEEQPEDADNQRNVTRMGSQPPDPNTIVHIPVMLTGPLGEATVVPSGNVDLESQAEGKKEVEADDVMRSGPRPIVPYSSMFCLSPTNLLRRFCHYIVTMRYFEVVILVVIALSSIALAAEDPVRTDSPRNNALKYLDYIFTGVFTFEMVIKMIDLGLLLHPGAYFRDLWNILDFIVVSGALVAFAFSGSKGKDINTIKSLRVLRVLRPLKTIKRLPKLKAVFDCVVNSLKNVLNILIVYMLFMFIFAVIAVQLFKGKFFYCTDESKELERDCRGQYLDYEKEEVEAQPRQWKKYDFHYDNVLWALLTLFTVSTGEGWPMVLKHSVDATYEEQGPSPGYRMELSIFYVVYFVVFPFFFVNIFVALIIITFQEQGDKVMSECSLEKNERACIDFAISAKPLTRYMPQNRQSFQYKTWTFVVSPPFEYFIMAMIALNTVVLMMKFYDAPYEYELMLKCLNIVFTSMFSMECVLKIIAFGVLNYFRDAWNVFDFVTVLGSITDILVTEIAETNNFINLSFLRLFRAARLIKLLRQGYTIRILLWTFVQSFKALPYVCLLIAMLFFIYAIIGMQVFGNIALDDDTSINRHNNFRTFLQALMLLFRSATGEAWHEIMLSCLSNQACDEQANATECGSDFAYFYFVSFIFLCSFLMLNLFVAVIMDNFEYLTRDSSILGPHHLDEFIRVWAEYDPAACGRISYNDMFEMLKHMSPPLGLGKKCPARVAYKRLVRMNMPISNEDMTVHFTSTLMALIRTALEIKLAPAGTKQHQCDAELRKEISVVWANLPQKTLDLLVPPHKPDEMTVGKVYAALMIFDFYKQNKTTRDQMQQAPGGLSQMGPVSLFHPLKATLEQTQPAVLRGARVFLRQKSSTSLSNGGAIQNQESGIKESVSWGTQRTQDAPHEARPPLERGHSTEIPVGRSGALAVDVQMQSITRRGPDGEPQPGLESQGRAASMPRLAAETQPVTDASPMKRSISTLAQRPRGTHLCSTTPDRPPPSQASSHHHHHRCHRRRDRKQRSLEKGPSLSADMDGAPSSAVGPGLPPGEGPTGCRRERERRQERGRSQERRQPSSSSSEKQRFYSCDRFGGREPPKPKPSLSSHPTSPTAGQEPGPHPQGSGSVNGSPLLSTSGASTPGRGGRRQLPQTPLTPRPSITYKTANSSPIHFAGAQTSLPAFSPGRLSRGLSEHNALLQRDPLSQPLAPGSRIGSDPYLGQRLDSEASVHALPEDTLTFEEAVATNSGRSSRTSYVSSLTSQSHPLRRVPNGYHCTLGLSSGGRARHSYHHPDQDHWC
T1 sequence (P54289 25-956 partner limits assumed): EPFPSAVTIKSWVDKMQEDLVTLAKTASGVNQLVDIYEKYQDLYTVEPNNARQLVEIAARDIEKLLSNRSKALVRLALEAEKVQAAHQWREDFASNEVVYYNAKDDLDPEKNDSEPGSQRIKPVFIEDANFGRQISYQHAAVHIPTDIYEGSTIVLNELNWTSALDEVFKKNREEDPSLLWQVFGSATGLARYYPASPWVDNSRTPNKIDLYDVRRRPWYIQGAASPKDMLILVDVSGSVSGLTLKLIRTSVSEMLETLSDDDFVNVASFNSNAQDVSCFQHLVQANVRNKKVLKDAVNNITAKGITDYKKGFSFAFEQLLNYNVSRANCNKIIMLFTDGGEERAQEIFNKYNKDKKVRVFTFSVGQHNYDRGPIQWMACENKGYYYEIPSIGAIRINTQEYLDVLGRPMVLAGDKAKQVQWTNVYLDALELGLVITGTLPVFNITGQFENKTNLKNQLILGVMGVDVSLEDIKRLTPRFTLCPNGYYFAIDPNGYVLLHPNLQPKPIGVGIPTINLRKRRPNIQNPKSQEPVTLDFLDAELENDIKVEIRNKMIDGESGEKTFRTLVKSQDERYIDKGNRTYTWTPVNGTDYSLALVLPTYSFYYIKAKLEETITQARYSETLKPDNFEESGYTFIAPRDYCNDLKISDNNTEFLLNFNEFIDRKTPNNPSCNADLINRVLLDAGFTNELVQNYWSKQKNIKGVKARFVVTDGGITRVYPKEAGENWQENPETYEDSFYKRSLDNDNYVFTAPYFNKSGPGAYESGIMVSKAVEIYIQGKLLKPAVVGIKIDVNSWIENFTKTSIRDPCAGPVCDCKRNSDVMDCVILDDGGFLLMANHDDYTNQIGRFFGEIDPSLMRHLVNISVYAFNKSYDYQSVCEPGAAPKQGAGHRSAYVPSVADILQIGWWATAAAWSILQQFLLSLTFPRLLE
T1 sequence (P54289 957-1103 partner limits assumed): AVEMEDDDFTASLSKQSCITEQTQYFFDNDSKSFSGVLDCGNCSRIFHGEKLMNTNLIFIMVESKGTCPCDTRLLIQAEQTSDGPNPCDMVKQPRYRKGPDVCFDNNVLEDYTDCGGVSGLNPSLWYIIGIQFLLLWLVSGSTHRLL
T1 sequence (P54284 whole entry partner): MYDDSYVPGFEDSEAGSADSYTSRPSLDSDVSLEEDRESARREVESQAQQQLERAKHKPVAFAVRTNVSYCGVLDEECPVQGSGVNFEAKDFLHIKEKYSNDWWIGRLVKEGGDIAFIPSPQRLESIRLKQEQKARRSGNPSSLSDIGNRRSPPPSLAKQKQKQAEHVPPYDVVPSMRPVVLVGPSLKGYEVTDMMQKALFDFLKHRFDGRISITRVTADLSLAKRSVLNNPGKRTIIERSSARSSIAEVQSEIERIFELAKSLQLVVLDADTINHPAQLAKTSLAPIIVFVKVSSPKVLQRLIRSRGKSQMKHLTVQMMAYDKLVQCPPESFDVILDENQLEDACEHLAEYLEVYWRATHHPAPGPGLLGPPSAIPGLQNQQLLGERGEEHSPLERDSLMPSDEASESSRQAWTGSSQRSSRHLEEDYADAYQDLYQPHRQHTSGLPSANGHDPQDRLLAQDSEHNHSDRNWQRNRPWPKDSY

On to `CC(C)C[C@H](NC(=O)N1CCCCCC1)C(=O)N[C@@H](Cc1ccc(OCc2ccccc2)cc1)C(=O)OCc1ccccc1` (relative stereo) [Example 14, [S-(R*,R*)]-2-{2-[(Azepane-1-carbonyl)-amino]-4-methyl-pentanoylamino}-3-(4-benzyloxy-phenyl)-propionic acid benzyl ester], for which the “Inhibition of Calcium Flux in IMR-32 Cells % Inhibition at 1 μM” value amounted to 45%.

Consider `COC(=O)[C@H](Cc1ccc(OC(C)(C)C)cc1)NC(=O)[C@H](CC(C)C)NC(=O)N1CCCCCC1` (relative stereo) [Example 22, [S-(R*,R*)]-2-{2-[(Azepane-1-carbonyl)-amino]-4-methyl-pentanoylamino}-3-(4-tert-butoxy-phenyl)-propionic acid methyl ester], for which the “Inhibition of Calcium Flux in IMR-32 Cells % Inhibition at 1 μM” value was 29%. Consider `CC(C)C[C@H](NC(=O)N1CCCCCC1)C(=O)N[C@@H](Cc1ccc(OCc2cccc(N)c2)cc1)C(=O)OC(C)(C)C` (relative stereo) [Example 29, [S-(R*,R*)]-3-[4-(3-Amino-benzyloxy)-phenyl]-2-{2-[(azepane-1-carbonyl)-amino]-4-methyl-pentanoylamino}-propionic acid tert-butyl ester], for which the “Inhibition of Calcium Flux in IMR-32 Cells % Inhibition at 1 μM” value turned out to be 43% and the “Inhibition of Calcium Flux in IMR-32 Cells % Inhibition at 10 μM” value is given as 87%. Turning to `CC(C)C[C@H](NC(=O)N1CCOCC1)C(=O)N[C@@H](Cc1ccc(OCc2ccccc2)cc1)C(=O)OC(C)(C)C` (relative stereo) [Example 34, [S-(R*,R*)]-3-(4-Benzyloxy-phenyl)-2(S)-{4-methyl-2(S)-[(morpholine-4-carbonyl)-amino]-pentanoylamino}-propionic acid tert-butyl ester], the “Inhibition of Calcium Flux in IMR-32 Cells % Inhibition at 1 μM” value was determined as 29% and the “Inhibition of Calcium Flux in IMR-32 Cells % Inhibition at 10 μM” value is recorded as 78%. With `CC(C)C[C@H](NC(=S)Nc1ccc(C(C)C)cc1)C(=O)N[C@@H](Cc1ccc(OCc2ccccc2)cc1)C(=O)OC(C)(C)C` (relative stereo) [Example 43, [S-(R*,R*)]-3-(4-Benzyloxy-phenyl)-2-{2-[3-(4-isopropyl-phenyl)-thioureido]-4-methyl-pentanoylamino}-propionic acid, tert-butyl ester], the “Inhibition of Calcium Flux in IMR-32 Cells % Inhibition at 1 μM” value was 17% and the “Inhibition of Calcium Flux in IMR-32 Cells % Inhibition at 10 μM” value is 38%. On the same counts, the results for `CC(C)C[C@H](NC(=S)Nc1ccc(Br)cc1)C(=O)N[C@@H](Cc1ccc(OCc2ccccc2)cc1)C(=O)OC(C)(C)C` (relative stereo) [Example 45, [S-(R*,R*)]-3-(4-Benzyloxy-phenyl)-2-{2-[3-(4-bromophenyl)-thioureido]-4-methyl-pentanoyl-amino}-propionic acid, tert-butyl ester] are 29% and 68%.

In the case of `CC(C)C[C@H](NC(=S)NC12CC3CC(CC(C3)C1)C2)C(=O)N[C@@H](Cc1ccc(OCc2ccccc2)cc1)C(=O)OC(C)(C)C` (relative stereo) [Example 46, [S-(R*,R*)]-3-(4-Benzyloxy-phenyl)-2-{2-[3-(1-adamantyl)-thioureido]-4-methylpentanoylamino}-propionic acid, tert-butyl ester], the “Inhibition of Calcium Flux in IMR-32 Cells % Inhibition at 1 μM” value was 29% and the “Inhibition of Calcium Flux in IMR-32 Cells % Inhibition at 10 μM” value is on record as 49%. `Cc1ccc(NC(=S)N[C@@H](CC(C)C)C(=O)N[C@@H](Cc2ccc(OCc3ccccc3)cc2)C(=O)OC(C)(C)C)cc1` (relative stereo) [Example 50, [S-(R*,R*)]-3-(4-Benzyloxy-phenyl)-2-[4-methyl-2-(3-p-tolyl-thioureido)-pentanoylamino]-propionic acid tert-butyl ester]: the “Inhibition of Calcium Flux in IMR-32 Cells % Inhibition at 1 μM” value turned out to be 53% and the “Inhibition of Calcium Flux in IMR-32 Cells % Inhibition at 10 μM” value was found to be 85%.
